The term MIC denotes the least concentration at which growth counts as inhibited. Low readings indicate greater potency, high ones weaker potency.

Experimental findings from patent publication US9676715B2, “Bis-indolic derivatives, a process for preparing the same and their uses as a drug” (UNIVERSITE JOSEPH FOURIER, priority 2011, dated 2017) are described below.

In brackets after ≈: the same amount, converted by molar mass.

Assay in all cases: MIC, Staphylococcus panel (9.2)
Holding throughout (assay type): cell-based

Experiment [1] relates to Staphylococcus aureus ATCC 106414 (VISA). The conditions noted are these: 18 h. The procedure:
(§1) The microdilution method recommended by the Clinical and Laboratory Standard Institute [M07-A9, Vol. 32, N° 2] was used. The activity of bis-indolic compounds 3f and 4 was tested against 35 Staphylococcus bacterial strains corresponding to 12 different species,
(§2) Bacterial inocula were prepared in Mueller Hinton broth (MH2, BioMérieux, Marcy L'Etoile, France). They were dispensed in 96 well microtiter plates (5×10^5 CFU/ml of final inoculum, 192 μL per well). Indolic compounds diluted in pure DMSO (8 μL per well, concentrated 25 times) were added to the wells as to obtain two-fold serial concentrations (0.5-32 mg/L of final concentrations). The final concentration of DMSO was 4% in each well.
(§3) To avoid cross-contaminations in microtiter plates, one row was left blank between each strain tested. Microplates were incubated for 18 h at 37° C. in ambient air. Then MICs were read visually and, in case of visual reading difficulties, confirmed using a spectrophotometer at a wavelength of 630 nm (BioTek® EL808 Absorbance Microplate Reader). MICs corresponded to the minimum bis-indolic compound concentration that allowed complete visual growth inhibition of bacteria. Drug-free cultures served as growth controls.
Four Staphylococcus aureus strains were used. Two reference strains were provided by the French reference center for Staphylococcus spp. (Lyon, France), including one methicillin-susceptible (MSSA 476) and one methicillin-resistant (MRSA 252) S. aureus strains. The two remaining S. aureus strains were purchased from the CRBIP (Centre de Ressources Biologiques de l'Institut Pasteur): a vancomycin-intermediate strain (ATCC 106414) and a S. aureus strain (SA-1199B) resistant to fluoroquinolones due to overexpression of the NorA multidrug efflux pump.

Experiment [2] has as its system Staphylococcus hominis (CHUG-Shom6). The conditions noted are these: S. hominis CHUG-Shom6, 4% DMSO, 18 h. The procedure:
as §1, §2, §3
(§4) Coagulase-negative Staphylococcus strains included three reference strains purchased from CRBIP: a methicillin-susceptible S. epidermidis strain (ATCC 12228), a methicillin-resistant S. epidermidis strain (ATCC 49461), and a methicillin-susceptible S. sciuri strain (ATCC 29061). We also used clinical strains belonging to the following coagulase-negative Staphylococcus species: S. auricularis (two strains), S. warneri (five strains), S. capitis (five strains), S. haemolyticus (four strains), S. hominis (seven strains), S. cohnii (two strains), and S. saprophyticus, S. caprae and S. simulans (one strain each). Identification of the clinical strains was obtained using VITEK® 2 System (Biomérieux). The specified strain numbers correspond to an internal number of the bacterial strain collection of our laboratory.

Experiment [3] relates to Staphylococcus hominis (CHUG-Shom8). The conditions noted are these: S. hominis CHUG-Shom8, 4% DMSO, 18 h. On the procedure: as §1, §2, §3, §4
The subject of experiment [4] is Staphylococcus capitis (CHUG-Scap5). The conditions noted are these: S. capitis CHUG-Scap5, 4% DMSO, 18 h. The procedure: as §1, §2, §3, §4
Experiment [5] has as its system Staphylococcus hominis (CHUG-Shom4). The conditions noted are these: S. hominis CHUG-Shom4, 4% DMSO, 18 h. The procedure: as §1, §2, §3, §4
In experiment [6] the test system is Staphylococcus auricularis (CHUG-Saur3). The conditions noted are these: S. auricularis CHUG-Saur3, 4% DMSO, 18 h. The procedure: as §1, §2, §3, §4
Experiment [7] relates to Staphylococcus warneri (CHUG-Swar4). The conditions noted are these: S. warneri CHUG-Swar4, 4% DMSO, 18 h. On the procedure: as §1, §2, §3, §4
Experiment [8] relates to Staphylococcus haemolyticus (CHUG-Shae5). Conditions: S. haemolyticus CHUG-Shae5, 4% DMSO, 18 h. On the procedure: as §1, §2, §3, §4
The test system of experiment [9] is Staphylococcus hominis (CHUG-Shom5). The conditions noted are these: S. hominis CHUG-Shom5, 4% DMSO, 18 h. On the procedure:
as §1, §2, §3, §4

The subject of experiment [10] is Staphylococcus capitis (CHUG-Scap6). The conditions noted are these: S. capitis CHUG-Scap6, 4% DMSO, 18 h. On the procedure:
as §1, §2, §3, §4

Experiment [11] concerns Staphylococcus cohnii (CHUG-Scoh2). Conditions: S. cohnii CHUG-Scoh2, 4% DMSO, 18 h. On the procedure: as §1, §2, §3, §4
In experiment [12] the test system is Staphylococcus hominis (CHUG-Shom3). The conditions noted are these: S. hominis CHUG-Shom3, 4% DMSO, 18 h. The procedure: as §1, §2, §3, §4
Experiment [13] has as its system Staphylococcus haemolyticus (CHUG-Shae6). The conditions noted are these: S. haemolyticus CHUG-Shae6, 4% DMSO, 18 h. On the procedure:
as §1, §2, §3, §4

For experiment [14], the system named is Staphylococcus saprophyticus (CHUG-Ssap2). Conditions: S. saprophyticus CHUG-Ssap2, 4% DMSO, 18 h. On the procedure:
as §1, §2, §3, §4

Experiment [15] concerns Staphylococcus warneri (CHUG-Swar6). Conditions: S. warneri CHUG-Swar6, 4% DMSO, 18 h. On the procedure: as §1, §2, §3, §4
The subject of experiment [16] is Staphylococcus caprae (CHUG-Scapra1). The conditions noted are these: S. caprae CHUG-Scapra1, 4% DMSO, 18 h. The procedure:
as §1, §2, §3, §4

Experiment [17] concerns Staphylococcus hominis (CHUG-Shom7). Conditions: S. hominis CHUG-Shom7, 4% DMSO, 18 h. The procedure: as §1, §2, §3, §4
Experiment [18] deals with Staphylococcus haemolyticus (CHUG-Shae4). Conditions: S. haemolyticus CHUG-Shae4, 4% DMSO, 18 h. The procedure:
as §1, §2, §3, §4

Experiment [19] has as its system Staphylococcus capitis (CHUG-Scap4). The conditions noted are these: S. capitis CHUG-Scap4, 4% DMSO, 18 h. On the procedure:
as §1, §2, §3, §4

The subject of experiment [20] is Staphylococcus cohnii (CHUG-Scoh1) (MRSA). Conditions: S. cohnii CHUG-Scoh1 (MRSA), 4% DMSO, 18 h. On the procedure:
as §1, §2, §3, §4

The test system of experiment [21] is Staphylococcus capitis (CHUG-Scap7). Conditions: S. capitis CHUG-Scap7, 4% DMSO, 18 h. On the procedure:
as §1, §2, §3, §4

With `CC(NC(=O)c1c[nH]c2ccc(Br)cc12)c1c[nH]c2ccc(Br)cc12` (stereo not drawn) [Compound 4, 5-Bromo-N-(1-(5-bromo-1H-indol-3-yl)ethyl)-1H-indole-3-carboxamide], the minimal inhibitory concentration (MIC) in [1] was 1 µg/mL (≈ 2.17 µM).
As for `CC(C)(C)OC(=O)NCC(NC(=O)c1c[nH]c2ccc(Br)cc12)c1c[nH]c2ccc(Br)cc12` (stereo not drawn) [Compound 3f, tert-Butyl(2-(5-bromo-1H-indol-3-yl)-2-(5-bromo-1H-indolyl-3-carboxamido)ethyl)carbamate], the MIC in experiment [2] stood at 8 µg/mL (≈ 13.9 µM); in [3] it was 8 µg/mL (≈ 13.9 µM); in experiment [4], 16 µg/mL (≈ 27.8 µM); in [5], 8 µg/mL (≈ 13.9 µM); in experiment [6] it was 8 µg/mL (≈ 13.9 µM); in experiment [7] it was 8 µg/mL (≈ 13.9 µM). The MIC is 16 µg/mL (≈ 27.8 µM) in experiment [8]; 8 µg/mL (≈ 13.9 µM) in [9]; 8 µg/mL (≈ 13.9 µM) in [10]; 16 µg/mL (≈ 27.8 µM) in [11]; 16 µg/mL (≈ 27.8 µM) in [12]; 16 µg/mL (≈ 27.8 µM) in experiment [13]. The MIC in experiment [14] is 8 µg/mL (≈ 13.9 µM); in [15] it was 8 µg/mL (≈ 13.9 µM); in experiment [16] it was 8 µg/mL (≈ 13.9 µM); in [17], 8 µg/mL (≈ 13.9 µM); in experiment [18], 16 µg/mL (≈ 27.8 µM); in experiment [19] it was 4 µg/mL (≈ 6.94 µM). The MIC in experiment [20] and in experiment [21] was 16 µg/mL (≈ 27.8 µM) in each case.
